The values that follow come from the SangsterLogP compilation.

The nature of the series: method code SF-AS, from DOI: 10.1016/0223-5234(89)90056-1. Particulars: pH 7.4.
For the compound `O=[N+]([O-])c1cn(CCBr)c2ncccc12`, the logD (commonly the decadic logarithm of the distribution of all forms, ionised or not, between an organic phase and buffer at a given pH) stood at 1.95.

Turning to `O=C(Cn1cc([N+](=O)[O-])c2cccnc21)NCCO`, the pH-dependent lipophilicity (logD) is -0.19.

As to `O=C(Cn1cc([N+](=O)[O-])c2cccnc21)NCCCN1CCOCC1`, the logD is -0.15.

In turn, `COc1nc2c(c(=O)n(C)c(=O)n2C)n1C` showed a logD of -0.09.

`CCOC(=O)Cn1cc([N+](=O)[O-])c2cccnc21` had a logD of 0.57.

Consider `O=[N+]([O-])c1c[nH]c2nccnc12`, for which the logD is -0.23.

As for `O=[N+]([O-])c1cn(CC(O)CO)c2ncccc12` (stereo not given), the logD is -0.28.

On to `CCOC(=O)Cn1cccc2c([N+](=O)[O-])cnc1-2`, for which the logD was -0.12.

Take `O=C(Cn1cccc2c([N+](=O)[O-])cnc1-2)NCCCN1CCOCC1`: the logD was -0.52.

In turn, `Cn1cc([N+](=O)[O-])c2cccnc21` showed a logD of 0.49.
